Consider 1 compound from article PMC5218480 (PLoS ONE, 2017).

The subject of the assay is MV-4-11 cells. The assay is described as follows: Gene expression microarray analysis (Affymetrix PrimeView) and GSEA. The format is cell-based, human. Set-up: RFU PODN (11730768_x_at) / Fold change /veh PODN (11730768_x_at) / RFU LINC00158 (11744669_a_at) / Fold change /veh LINC00158 (11744669_a_at) / RFU DUSP10 (11751237_a_at) / Fold change /veh DUSP10 (11751237_a_at) / RFU ID3 (11757404_x_at) / Fold change /veh ID3 (11757404_x_at) / RFU PLEKHG5 (11737974_s_at) / Fold change /veh PLEKHG5 (11737974_s_at) / RFU LRRC4B (11730491_at) / Fold change /veh LRRC4B (11730491_at) / RFU GIMAP4 (11747438_a_at) / Fold change /veh GIMAP4 (11747438_a_at) / RFU KRT8 (11758183_x_at) / Fold change /veh KRT8 (11758183_x_at) / RFU CNN1 (11734310_a_at) / Fold change /veh CNN1 (11734310_a_at) / RFU VPS37D (11726825_at) / Fold change /veh VPS37D (11726825_at) / RFU C10orf10 (11716522_x_at) / Fold change /veh C10orf10 (11716522_x_at) / RFU KIR2DL2 /// KIR2DL4 /// KIR2DL5A /// KIR2DL5B /// KIR2DS1 /// KIR2DS2 /// KIR2DS3 /// KIR2DS4 /// KIR3DL3 /// KIR3DL3 /// KIR3DS1 (11738374_at) / Fold change /veh KIR2DL2 /// KIR2DL4 /// KIR2DL5A /// KIR2DL5B /// KIR2DS1 /// KIR2DS2 /// KIR2DS3 /// KIR2DS4 /// KIR3DL3 /// KIR3DL3 /// KIR3DS1 (11738374_at) / RFU C1QL1 (11718748_at) / Fold change /veh C1QL1 (11718748_at) / RFU TMPRSS4 (11747572_a_at) / Fold change /veh TMPRSS4 (11747572_a_at) / RFU HAMP (11756126_x_at) / Fold change /veh HAMP (11756126_x_at) / RFU RNFT2 (11725882_a_at) / Fold change /veh RNFT2 (11725882_a_at) / RFU NR4A2 (11747474_a_at) / Fold change /veh NR4A2 (11747474_a_at) / RFU ABCC12 (11746883_a_at) / Fold change /veh ABCC12 (11746883_a_at) / RFU TMEM136 (11760407_x_at) / Fold change /veh TMEM136 (11760407_x_at) / RFU CLDN22 /// WWC2 (11732394_at) / Fold change /veh CLDN22 /// WWC2 (11732394_at) / RFU HLA-DPB1 (11760878_x_at) / Fold change /veh HLA-DPB1 (11760878_x_at) / RFU SPINT1 (11716480_a_at) / Fold change /veh SPINT1 (11716480_a_at) / RFU GAP43 (11754022_s_at) / Fold change /veh GAP43 (11754022_s_at) / RFU A4GNT (11735810_at) / Fold change /veh A4GNT (11735810_at) / RFU PRB3 (11715151_x_at) / Fold change /veh PRB3 (11715151_x_at) / RFU TUBB4B (11761932_at) / Fold change /veh TUBB4B (11761932_at) / RFU CAPN14 (11732068_a_at) / Fold change /veh CAPN14 (11732068_a_at) / RFU TMCC2 (11721928_a_at) / Fold change /veh TMCC2 (11721928_a_at) / RFU IRGQ (11745062_a_at) / Fold change /veh IRGQ (11745062_a_at) / RFU FAM174B (11720279_a_at) / Fold change /veh FAM174B (11720279_a_at) / RFU TMPRSS4 (11748680_a_at) / Fold change /veh TMPRSS4 (11748680_a_at) / RFU FAM212B (11763350_a_at) / Fold change /veh FAM212B (11763350_a_at) / RFU PLEKHG5 (11743358_a_at) / Fold change /veh PLEKHG5 (11743358_a_at) / RFU ZSCAN30 (11745921_a_at) / Fold change /veh ZSCAN30 (11745921_a_at) / RFU CMKLR1 (11741424_a_at) / Fold change /veh CMKLR1 (11741424_a_at) / RFU LOC101060620 /// MAPK8IP1 (11723275_at) / Fold change /veh LOC101060620 /// MAPK8IP1 (11723275_at) / RFU SPTSSB (11747773_x_at) / Fold change /veh SPTSSB (11747773_x_at) / RFU PRSS12 (11739890_at) / Fold change /veh PRSS12 (11739890_at) / RFU BIN1 (11741810_x_at) / Fold change /veh BIN1 (11741810_x_at) / RFU WNT11 (11732464_a_at) / Fold change /veh WNT11 (11732464_a_at) / RFU C10orf10 (11716521_a_at) / Fold change /veh C10orf10 (11716521_a_at) / RFU C5orf56 (11738089_at) / Fold change /veh C5orf56 (11738089_at) / RFU CYB561 (11721691_x_at) / Fold change /veh CYB561 (11721691_x_at) / RFU ANKRD19P (11752326_a_at) / Fold change /veh ANKRD19P (11752326_a_at) / RFU OR2T12 /// OR2T33 /// OR2T8 (11738714_s_at) / Fold change /veh OR2T12 /// OR2T33 /// OR2T8 (11738714_s_at) / RFU VCAN (11748164_a_at) / Fold change /veh VCAN (11748164_a_at) / RFU JSRP1 (11732532_at) / Fold change /veh JSRP1 (11732532_at) / RFU KRTAP10-11 (11738290_x_at) / Fold change /veh KRTAP10-11 (11738290_x_at) / RFU MYO3A (11730013_a_at) / Fold change /veh MYO3A (11730013_a_at) / RFU EBF3 (11725865_a_at) / Fold change /veh EBF3 (11725865_a_at) / RFU CAMK2N1 (11719241_x_at) / Fold change /veh CAMK2N1 (11719241_x_at) / RFU C5orf56 (11738088_a_at) / Fold change /veh C5orf56 (11738088_a_at) / RFU OLFML3 (11715873_a_at) / Fold change /veh OLFML3 (11715873_a_at) / RFU LOC100653217 /// NTM (11731650_a_at) / Fold change /veh LOC100653217 /// NTM (11731650_a_at) / RFU MAPK11 (11762145_a_at) / Fold change /veh MAPK11 (11762145_a_at) / RFU FIZ1 (11724087_x_at) / Fold change /veh FIZ1 (11724087_x_at) / RFU OASL (11726364_x_at) / Fold change /veh OASL (11726364_x_at) / RFU SOX15 (11748057_x_at) / Fold change /veh SOX15 (11748057_x_at) / RFU CD79A (11719716_a_at) / Fold change /veh CD79A (11719716_a_at) / RFU HIST1H1D (11736915_at) / Fold change /veh HIST1H1D (11736915_at) / RFU CASKIN2 (11723855_a_at) / Fold change /veh CASKIN2 (11723855_a_at) / RFU LOC730098 (11760151_x_at) / Fold change /veh LOC730098 (11760151_x_at) / RFU OR4N2 (11742367_at) / Fold change /veh OR4N2 (11742367_at) / RFU PRRT2 (11749266_a_at) / Fold change /veh PRRT2 (11749266_a_at) / RFU SNX32 (11753110_a_at) / Fold change /veh SNX32 (11753110_a_at) / RFU CDHR5 (11726645_a_at) / Fold change /veh CDHR5 (11726645_a_at) / RFU RCAN1 (11760418_a_at) / Fold change /veh RCAN1 (11760418_a_at) / RFU FAM167A (11723789_a_at) / Fold change /veh FAM167A (11723789_a_at) / RFU FAM26E (11764081_at) / Fold change /veh FAM26E (11764081_at) / RFU ISYNA1 (11749810_s_at) / Fold change /veh ISYNA1 (11749810_s_at) / RFU ACY1 (11761880_at) / Fold change /veh ACY1 (11761880_at) / RFU 11764098_at / Fold change /veh 11764098_at / RFU SAMD14 (11745864_x_at) / Fold change /veh SAMD14 (11745864_x_at) / RFU NPB (11741838_a_at) / Fold change /veh NPB (11741838_a_at) / RFU TMPRSS6 (11731388_a_at) / Fold change /veh TMPRSS6 (11731388_a_at) / RFU KRTAP10-2 (11738614_at) / Fold change /veh KRTAP10-2 (11738614_at) / RFU ARHGAP8 /// PRR5-ARHGAP8 (11727945_x_at) / Fold change /veh ARHGAP8 /// PRR5-ARHGAP8 (11727945_x_at) / RFU KRTAP5-7 /// NADSYN1 (11734609_at) / Fold change /veh KRTAP5-7 /// NADSYN1 (11734609_at) / RFU RASL12 (11751679_a_at) / Fold change /veh RASL12 (11751679_a_at) / RFU CDKN2B (11736163_a_at) / Fold change /veh CDKN2B (11736163_a_at) / RFU PRF1 (11729649_at) / Fold change /veh PRF1 (11729649_at) / RFU, ZNF638 /// ZNF638-IT1 / Fold change vs veh, ZNF638 /// ZNF638-IT1 / RFU, PANK3 / Fold change vs veh, PANK3 / RFU, SH3YL1 / Fold change vs veh, SH3YL1 / RFU, ZEB2 / Fold change vs veh, ZEB2 / RFU, NRIP1 / Fold change vs veh, NRIP1 / RFU, PTTG1IP / Fold change vs veh, PTTG1IP / RFU, CAPN2 / Fold change vs veh, CAPN2 / RFU, MED14 / Fold change vs veh, MED14 / RFU, SNORA58 / Fold change vs veh, SNORA58 / RFU, C1orf63 / Fold change vs veh, C1orf63 / RFU, LRRFIP1 / Fold change vs veh, LRRFIP1 / RFU, NDUFAF7 / Fold change vs veh, NDUFAF7 / RFU, SLC12A2 / Fold change vs veh, SLC12A2 / RFU, IBTK / Fold change vs veh, IBTK / RFU, ESF1 / Fold change vs veh, ESF1 / Fold change vs veh, TMEM50B / RFU, TAOK1 / Fold change vs veh, TAOK1 / RFU, ACBD3 / Fold change vs veh, ACBD3 / RFU, TMA16 / Fold change vs veh, TMA16 / RFU, RWDD3 / Fold change vs veh, RWDD3 / RFU, BCAT1 / Fold change vs veh, BCAT1 / RFU, EDEM3 / Fold change vs veh, EDEM3 / RFU, TMEM33 / Fold change vs veh, TMEM33 / RFU, WDR75 / Fold change vs veh, WDR75 / RFU, AHCTF1 / Fold change vs veh, AHCTF1 / RFU, TFRC / Fold change vs veh, TFRC / RFU, ZDHHC17 / Fold change vs veh, ZDHHC17 / RFU, NOM1 / Fold change vs veh, NOM1 / RFU, ARL8B / Fold change vs veh, ARL8B / RFU, ZBTB11 / Fold change vs veh, ZBTB11 / RFU, TAMM41 / Fold change vs veh, TAMM41 / RFU, KIAA1704 /// LOC100996395 / Fold change vs veh, KIAA1704 /// LOC100996395 / RFU, ING1 / Fold change vs veh, ING1 / RFU, TRMT61B / Fold change vs veh, TRMT61B / RFU, FUBP3 / Fold change vs veh, FUBP3 / RFU, TP53 / Fold change vs veh, TP53 / RFU, TNKS2 / Fold change vs veh, TNKS2 / RFU, ZFP14 / Fold change vs veh, ZFP14 / RFU, ACTR2 / Fold change vs veh, ACTR2 / RFU, PPP3R1 / Fold change vs veh, PPP3R1 / RFU, PIK3R1 / Fold change vs veh, PIK3R1 / RFU, HNRNPA1 / Fold change vs veh, HNRNPA1 / RFU, RNF170 / Fold change vs veh, RNF170 / RFU, ZNF28 / Fold change vs veh, ZNF28 / RFU, RNGTT / Fold change vs veh, RNGTT / RFU, OGT / Fold change vs veh, OGT / RFU, BRD1 / Fold change vs veh, BRD1 / RFU, MARS / Fold change vs veh, MARS / RFU, ZNF655 / Fold change vs veh, ZNF655 / RFU, FAHD1 / Fold change vs veh, FAHD1 / RFU, BDP1 / Fold change vs veh, BDP1 / RFU, LRRCC1 / Fold change vs veh, LRRCC1 / RFU, ARID1A / Fold change vs veh, ARID1A / RFU, ZNF146 / Fold change vs veh, ZNF146 / RFU, ZNF330 / Fold change vs veh, ZNF330 / RFU, GPN3 / Fold change vs veh, GPN3 / RFU, C9orf123 / Fold change vs veh, C9orf123 / RFU, N4BP2L2 / Fold change vs veh, N4BP2L2 / RFU, ARFIP1 / Fold change vs veh, ARFIP1 / RFU, FAM179B / Fold change vs veh, FAM179B / RFU, BCL10 / Fold change vs veh, BCL10 / RFU, UHRF1BP1L / Fold change vs veh, UHRF1BP1L / RFU, BET1 / Fold change vs veh, BET1 / RFU, CNOT2 / Fold change vs veh, CNOT2 / RFU, ZNF268 / Fold change vs veh, ZNF268 / Fold change vs veh, ZNF507 / RFU, DGCR2 / Fold change vs veh, DGCR2 / RFU, WDSUB1 / Fold change vs veh, WDSUB1 / Fold change vs veh, HSP90B1 /// MIR3652 / RFU, ADSS / Fold change vs veh, ADSS / RFU, GK / Fold change vs veh, GK / RFU, ZNF148 / Fold change vs veh, ZNF148 / RFU, TAF9 / Fold change vs veh, TAF9 / RFU, SLC1A5 / Fold change vs veh, SLC1A5 / RFU, SLMO2 / Fold change vs veh, SLMO2 / RFU, ABCC4 / Fold change vs veh, ABCC4 / RFU, LOC101060439 /// RAP1B / Fold change vs veh, LOC101060439 /// RAP1B / RFU, RFX7 / Fold change vs veh, RFX7 / RFU, GTPBP10 / Fold change vs veh, GTPBP10 / RFU, CNEP1R1 / Fold change vs veh, CNEP1R1 / RFU, BIVM-ERCC5 /// ERCC5 / Fold change vs veh, BIVM-ERCC5 /// ERCC5 / RFU, ILF3 / Fold change vs veh, ILF3 / RFU 11762660_at / Fold change /veh 11762660_at / RFU VCAN (11757783_s_at) / Fold change /veh VCAN (11757783_s_at) / RFU DDX43 (11728927_at) / Fold change /veh DDX43 (11728927_at) / RFU KRT8 (11758188_x_at) / Fold change /veh KRT8 (11758188_x_at) / RFU NKD1 (11759106_at) / Fold change /veh NKD1 (11759106_at) / RFU SRD5A1 (11742802_a_at) / Fold change /veh SRD5A1 (11742802_a_at) / RFU TPSAB1 /// TPSB2 (11721975_s_at) / Fold change /veh TPSAB1 /// TPSB2 (11721975_s_at) / RFU GSTM3 (11746129_a_at) / Fold change /veh GSTM3 (11746129_a_at) / RFU IL23R (11737362_x_at) / Fold change /veh IL23R (11737362_x_at) / RFU TMEM51 (11727254_a_at) / Fold change /veh TMEM51 (11727254_a_at) / RFU PIWIL2 (11732686_x_at) / Fold change /veh PIWIL2 (11732686_x_at) / RFU ORM1 (11744905_x_at) / Fold change /veh ORM1 (11744905_x_at) / RFU CCDC152 (11743942_at) / Fold change /veh CCDC152 (11743942_at) / RFU ECM1 (11717891_a_at) / Fold change /veh ECM1 (11717891_a_at) / RFU IL23R (11748794_a_at) / Fold change /veh IL23R (11748794_a_at) / RFU TNFAIP8L3 (11732012_x_at) / Fold change /veh TNFAIP8L3 (11732012_x_at) / RFU MBOAT4 (11741988_at) / Fold change /veh MBOAT4 (11741988_at) / RFU 11764193_at / Fold change /veh 11764193_at / RFU TMEM53 (11763286_at) / Fold change /veh TMEM53 (11763286_at) / RFU MAGEB2 (11727129_at) / Fold change /veh MAGEB2 (11727129_at) / RFU TMEM200A (11744735_a_at) / Fold change /veh TMEM200A (11744735_a_at) / RFU CCDC152 (11751479_a_at) / Fold change /veh CCDC152 (11751479_a_at) / RFU FAM211A (11726209_a_at) / Fold change /veh FAM211A (11726209_a_at) / RFU RGS16 (11746705_a_at) / Fold change /veh RGS16 (11746705_a_at) / RFU VCAN (11755009_s_at) / Fold change /veh VCAN (11755009_s_at) / RFU RHOB (11743442_s_at) / Fold change /veh RHOB (11743442_s_at) / RFU RGS16 (11720943_a_at) / Fold change /veh RGS16 (11720943_a_at) / RFU RGS16 (11720944_at) / Fold change /veh RGS16 (11720944_at) / RFU, VPS4B / Fold change vs veh, VPS4B / RFU, CREB1 / Fold change vs veh, CREB1 / RFU, DNAJC13 / Fold change vs veh, DNAJC13 / RFU, GNAQ / Fold change vs veh, GNAQ / RFU, CDK5R1 / Fold change vs veh, CDK5R1 / RFU, ZRANB3 / Fold change vs veh, ZRANB3 / RFU, CUL4A / Fold change vs veh, CUL4A / RFU, CCNY / Fold change vs veh, CCNY / RFU, UFL1 / Fold change vs veh, UFL1 / RFU, COG3 / Fold change vs veh, COG3 / RFU, DIAPH2 / Fold change vs veh, DIAPH2 / RFU, SKA2 / Fold change vs veh, SKA2 / RFU, AFF3 / Fold change vs veh, AFF3 / RFU, LMF1 / Fold change vs veh, LMF1 / RFU, IPO11 / Fold change vs veh, IPO11 / RFU, DFFB / Fold change vs veh, DFFB / RFU, FOXP1 / Fold change vs veh, FOXP1 / RFU, CARD8 / Fold change vs veh, CARD8 / RFU, STRN3 / Fold change vs veh, STRN3 / RFU, ADK / Fold change vs veh, ADK / RFU, RASSF2 / Fold change vs veh, RASSF2 / RFU, WIPF1 / Fold change vs veh, WIPF1 / RFU, LARP1B / Fold change vs veh, LARP1B / RFU, RASA1 / Fold change vs veh, RASA1 / RFU, RB1 / Fold change vs veh, RB1 / RFU, PPFIA1 / Fold change vs veh, PPFIA1 / RFU, MAT2A / Fold change vs veh, MAT2A / RFU, CCT5 / Fold change vs veh, CCT5 / RFU, WDR92 / Fold change vs veh, WDR92 / RFU, CUX1 / Fold change vs veh, CUX1 / RFU, TTC7A / Fold change vs veh, TTC7A / RFU, TMEM135 / Fold change vs veh, TMEM135 / RFU, DEPTOR / Fold change vs veh, DEPTOR / RFU, CPM / Fold change vs veh, CPM / RFU, DNAJB6 / Fold change vs veh, DNAJB6 / RFU, CACNA2D3 / Fold change vs veh, CACNA2D3 / RFU, DTX4 / Fold change vs veh, DTX4 / RFU, TFCP2 / Fold change vs veh, TFCP2 / RFU, GMCL1 /// GMCL1P1 / Fold change vs veh, GMCL1 /// GMCL1P1 / RFU, AEBP2 / Fold change vs veh, AEBP2 / RFU, SNHG1 /// SNORD22 /// SNORD25 /// SNORD26 /// SNORD27 /// SNORD28 /// SNORD29 /// SNORD31 / Fold change vs veh, SNHG1 /// SNORD22 /// SNORD25 /// SNORD26 /// SNORD27 /// SNORD28 /// SNORD29 /// SNORD31 / Fold change (Aza/veh), C12orf56 (ProbeSet 11735607_a_at) / Fold change (ACY-1035/veh), C12orf56 (ProbeSet 11735607_a_at) / Fold change (Aza/veh), FGFR1OP (ProbeSet 11751329_s_at) / Fold change (ACY-1035/veh), FGFR1OP (ProbeSet 11751329_s_at) / Fold change (Aza/veh), VPS36 (ProbeSet 11739960_a_at) / Fold change (ACY-1035/veh), VPS36 (ProbeSet 11739960_a_at) / RFU SYPL1 (11715823_x_at) / Fold change /veh SYPL1 (11715823_x_at) / RFU IGFBP7 (11715501_s_at) / Fold change /veh IGFBP7 (11715501_s_at) / RFU REEP3 (11722064_at) / Fold change /veh REEP3 (11722064_at) / RFU IGLL1 (11728026_x_at) / Fold change /veh IGLL1 (11728026_x_at): dose or concentration left out as unconfirmed. The note with it: MV-4-11 cells, 48 hours.

`Nc1ccc(-c2cccs2)cc1NC(=O)c1ccc2c(c1)cc(C1CC1)n2CCN1CCOCC1` [ACY-1035]: the “Fold change /veh CD79A (11719716_a_at)” value was determined as 1.12.
